Results taken from patent US9840498B2, “Substituted quinazolin-4-one derivatives” (NOVARTIS AG, priority 2013, dated 2017).

Columns and labels:
[1] = target: human phosphoinositide-3 kinase (PI3K) alpha (Homo sapiens (Human), UniProt P42336); assay: PI3K-mediated Akt 1/2 (S473) phosphorylation in Rat-1 cells overexpressing PI3K alpha; assay type: cell-based, rat cells expressing human PI3K alpha; settings: cellular assay, p-AKT(Ser473), read-out: Cell PI3K alpha IC50
[2] = target: human phosphoinositide-3 kinase (PI3K) delta (Homo sapiens (Human), UniProt O00329); assay: PI3K-mediated Akt 1/2 (S473) phosphorylation in Rat-1 cells overexpressing PI3K delta; assay type: cell-based; settings: cellular assay, p-AKT(Ser473), read-out: Cell PI3K delta IC50
Sequence of human phosphoinositide-3 kinase (PI3K) delta (O00329 whole entry): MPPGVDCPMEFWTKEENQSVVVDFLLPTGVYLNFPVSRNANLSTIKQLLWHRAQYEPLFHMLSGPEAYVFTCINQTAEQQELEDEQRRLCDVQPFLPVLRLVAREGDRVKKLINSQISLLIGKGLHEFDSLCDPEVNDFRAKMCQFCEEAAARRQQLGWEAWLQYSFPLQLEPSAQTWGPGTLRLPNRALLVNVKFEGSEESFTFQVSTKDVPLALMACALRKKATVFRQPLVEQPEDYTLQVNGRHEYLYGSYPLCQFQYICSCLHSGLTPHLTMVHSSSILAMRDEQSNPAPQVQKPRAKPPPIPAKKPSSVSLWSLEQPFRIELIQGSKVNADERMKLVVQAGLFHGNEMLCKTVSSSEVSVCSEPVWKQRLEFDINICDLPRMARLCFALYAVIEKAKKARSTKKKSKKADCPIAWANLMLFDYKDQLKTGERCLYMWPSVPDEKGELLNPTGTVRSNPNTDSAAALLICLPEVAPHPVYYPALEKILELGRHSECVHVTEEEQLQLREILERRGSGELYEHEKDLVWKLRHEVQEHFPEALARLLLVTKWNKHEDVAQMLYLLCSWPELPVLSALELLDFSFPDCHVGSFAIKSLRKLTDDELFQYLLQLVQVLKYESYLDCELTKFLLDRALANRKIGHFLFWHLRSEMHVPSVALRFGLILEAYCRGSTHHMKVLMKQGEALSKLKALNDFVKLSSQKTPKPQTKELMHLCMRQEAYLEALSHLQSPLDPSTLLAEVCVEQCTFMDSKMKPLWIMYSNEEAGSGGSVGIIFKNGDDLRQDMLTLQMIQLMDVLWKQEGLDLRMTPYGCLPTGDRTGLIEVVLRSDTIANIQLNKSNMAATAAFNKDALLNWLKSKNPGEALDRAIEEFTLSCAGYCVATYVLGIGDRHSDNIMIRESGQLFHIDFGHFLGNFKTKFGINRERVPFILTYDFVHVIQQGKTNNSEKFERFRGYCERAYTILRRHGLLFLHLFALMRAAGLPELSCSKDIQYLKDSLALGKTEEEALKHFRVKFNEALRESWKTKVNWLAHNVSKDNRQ
Sequence of human phosphoinositide-3 kinase (PI3K) delta (Q63787 whole entry partner): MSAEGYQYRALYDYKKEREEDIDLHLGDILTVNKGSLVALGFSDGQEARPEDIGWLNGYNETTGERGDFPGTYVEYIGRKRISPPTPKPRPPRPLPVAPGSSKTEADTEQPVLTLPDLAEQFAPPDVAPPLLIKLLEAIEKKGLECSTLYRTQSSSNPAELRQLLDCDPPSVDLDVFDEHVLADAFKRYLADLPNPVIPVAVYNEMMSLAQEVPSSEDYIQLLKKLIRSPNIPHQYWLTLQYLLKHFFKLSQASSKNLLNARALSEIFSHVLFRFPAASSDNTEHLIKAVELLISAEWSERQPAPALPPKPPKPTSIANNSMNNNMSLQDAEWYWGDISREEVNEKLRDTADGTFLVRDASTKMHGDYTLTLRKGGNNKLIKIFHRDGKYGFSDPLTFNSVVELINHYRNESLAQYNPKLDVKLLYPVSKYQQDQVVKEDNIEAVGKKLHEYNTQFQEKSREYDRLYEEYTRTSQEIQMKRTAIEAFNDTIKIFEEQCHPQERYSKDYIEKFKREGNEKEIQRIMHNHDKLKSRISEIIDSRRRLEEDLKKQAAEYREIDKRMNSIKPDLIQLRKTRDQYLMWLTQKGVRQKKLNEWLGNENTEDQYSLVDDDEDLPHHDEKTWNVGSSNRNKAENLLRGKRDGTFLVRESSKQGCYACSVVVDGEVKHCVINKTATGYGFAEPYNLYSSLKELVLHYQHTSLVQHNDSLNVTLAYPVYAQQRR

Sequence of human phosphoinositide-3 kinase (PI3K) alpha (P42336 whole entry): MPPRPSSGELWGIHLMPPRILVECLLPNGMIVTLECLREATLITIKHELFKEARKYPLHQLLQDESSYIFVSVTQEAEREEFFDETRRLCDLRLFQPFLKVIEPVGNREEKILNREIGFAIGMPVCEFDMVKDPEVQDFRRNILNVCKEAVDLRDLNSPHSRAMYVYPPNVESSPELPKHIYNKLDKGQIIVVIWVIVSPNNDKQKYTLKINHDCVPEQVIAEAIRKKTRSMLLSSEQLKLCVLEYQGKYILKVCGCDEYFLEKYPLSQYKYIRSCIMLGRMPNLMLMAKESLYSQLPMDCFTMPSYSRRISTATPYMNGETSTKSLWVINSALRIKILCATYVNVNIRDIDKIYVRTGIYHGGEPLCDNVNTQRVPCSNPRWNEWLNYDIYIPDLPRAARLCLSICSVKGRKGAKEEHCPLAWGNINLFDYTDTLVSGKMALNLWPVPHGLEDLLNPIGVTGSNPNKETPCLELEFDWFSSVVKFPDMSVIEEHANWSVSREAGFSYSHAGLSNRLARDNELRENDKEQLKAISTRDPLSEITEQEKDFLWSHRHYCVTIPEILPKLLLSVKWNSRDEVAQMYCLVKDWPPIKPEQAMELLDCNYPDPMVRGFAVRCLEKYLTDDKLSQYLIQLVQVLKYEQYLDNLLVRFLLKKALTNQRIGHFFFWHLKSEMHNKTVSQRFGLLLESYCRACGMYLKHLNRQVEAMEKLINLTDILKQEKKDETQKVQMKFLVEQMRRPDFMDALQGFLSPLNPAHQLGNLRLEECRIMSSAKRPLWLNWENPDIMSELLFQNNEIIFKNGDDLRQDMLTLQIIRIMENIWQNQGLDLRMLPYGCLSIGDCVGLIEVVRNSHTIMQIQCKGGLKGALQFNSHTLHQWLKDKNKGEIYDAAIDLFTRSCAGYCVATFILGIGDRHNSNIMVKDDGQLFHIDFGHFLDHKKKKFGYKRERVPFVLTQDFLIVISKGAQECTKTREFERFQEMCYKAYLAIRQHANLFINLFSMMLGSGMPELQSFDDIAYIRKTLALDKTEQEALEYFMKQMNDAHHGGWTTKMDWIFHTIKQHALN
Sequence of human phosphoinositide-3 kinase (PI3K) alpha (Q63787 whole entry partner): as the sequence (Q63787 whole entry partner) above

IC50 [1] [µM] | IC50 [2] [µM] | Structure (SMILES)
> 10 | 0.12 | Cc1nc(N)nc(N2C[C@@H](O)C[C@H]2c2nc3ccc(F)c(-c4cn(C)cn4)c3c(=O)n2-c2ccccc2)c1C#N [Example 31, 2-Amino-4-((2S,4S)-2-(6-fluoro-5-(1-methyl-1H-imidazol-4-yl)-4-oxo-3-phenyl-3,4-dihydroquinazolin-2-yl)-4-hydroxypyrrolidin-1-yl)-6-methylpyrimidine-5-carbonitrile]
2.4 | < 0.003 | CCOc1ncc(-c2cccc3nc([C@@H]4CCCN4c4nc(N)nc(C)c4C#N)n(-c4ccccc4)c(=O)c23)cn1 [Example 32, (S)-2-Amino-4-(2-(5-(2-ethoxypyrimidin-5-yl)-4-oxo-3-phenyl-3,4-dihydroquinazolin-2-yl)pyrrolidin-1-yl)-6-methylpyrimidine-5-carbonitrile]
6.5 | 0.014 | N#Cc1c(N)ncnc1N1CCC[C@H]1c1nc2cccc(C#CCO)c2c(=O)n1-c1ccccc1 [Example 33, (S)-4-Amino-6-(2-(5-(3-hydroxyprop-1-yn-1-yl)-4-oxo-3-phenyl-3,4-dihydroquinazolin-2-yl)pyrrolidin-1-yl)pyrimidine-5-carbonitrile]
